Laboratory results as given in patent US20210238177A1, “CRYSTALLINE FORMS OF 3-((1R,5S,9r)-9-ETHOXY-3-AZABICYCLO[3.3.1]NONAN-9-YL)-BENZAMIDE AND SALT FORMS THEREOF” (Alkermes, Inc., priority 2020, published 2021).

Test: Dynamic Vapor Sorption (DVS) with PXRD of the material after DVS
Format: physicochemical
Procedure: DVS analysis was conducted using a TA Instruments TGA Q5000 SA. DVS was run at 25 degrees C. The sample was pre-dried at 25 degrees C. and 0% relative humidity (% RH) until the dm/dt was 0.01% for up to 300 minutes. Adsorption and desorption isotherms were measured by ramping the humidity from 0% RH to 90% RH to 0% RH at 10% RH step intervals with a stability criterion of dm/dt=0.01% or 300 minutes unless otherwise noted. Data analysis was performed using Universal Analysis 2000 Version 4.5 A.

SMILES	water (DVS weight gain) (25 degrees C, first cycle, up to 50% RH)	solid form after DVS (PXRD pattern) (after two cycle DVS, 0% RH to 90% RH to 0% RH, 25 degrees C)	relative stability of HCl salt solid forms (conclusion based on the DVS experiment)
CCOC1(c2cccc(C(N)=O)c2)C2CCCC1CNC2.Cl [hydrochloride Form D, 3-((1R,5S,9r-9-ethoxy-3-azabicyclo-[3.3.1]nonan-9-yl)-benzamide hydrochloride]	approximately 0.5%	consistent with hydrochloride Form B	
CCOC1(c2cccc(C(N)=O)c2)C2CCCC1CNC2.Cl [hydrochloride Form B, 3-((1R,5S,9r-9-ethoxy-3-azabicyclo-[3.3.1]nonan-9-yl)-benzamide hydrochloride]			most stable HCl salt solid form
